The source of these data is patent US20060229324A1, “Quinazolin-4-one derivatives” (priority 2002, published 2006).

This experiment concerns the target human hematopoietic prostaglandin D2 synthase (Homo sapiens, UniProt O60760). As to the kind of experiment: Inhibitory activity against spleen-type (hematopoietic) prostaglandin D2 synthase, [14C]PGH2 to PGD2, TLC. The class given is biochemical. To be noted: for inhibition at 10 µM / inhibition at 30 µM: read-out: Inhibitory Ratio of Prostaglandin D2 (PGD2) Synthase (%). As for the experimental part:
A buffer solution of 100 mM Tris (hydroxymethyl)aminomethane/HCl buffer (pH8.0) containing glutathione (0.1 mM) and human hematopoietic prostaglandin D2 synthase (adequate quantity) was preincubated at 25° C. for 5 minutes in the presence or absence of a test compound, and then 14C labeled prostaglandin H2 ([14C]PGH2) (10 μM) was added, and the buffer solution was further incubated at 25° C. for one minute. A mixture of ether, methanol, and citric acid was added to the reaction mixture, and the ether layer was developed on silica gel thin-layer chromatography (TLC) (eluent=ether: methanol: acetic acid=90:2:1), and the PGD2 produced was measured by exposure to an imaging plate. The enzyme inhibitory rates of test compounds were calculated assuming the amount of production of PGD2 without the test compound being 100%.

Sequence of human hematopoietic prostaglandin D2 synthase (O60760 whole entry): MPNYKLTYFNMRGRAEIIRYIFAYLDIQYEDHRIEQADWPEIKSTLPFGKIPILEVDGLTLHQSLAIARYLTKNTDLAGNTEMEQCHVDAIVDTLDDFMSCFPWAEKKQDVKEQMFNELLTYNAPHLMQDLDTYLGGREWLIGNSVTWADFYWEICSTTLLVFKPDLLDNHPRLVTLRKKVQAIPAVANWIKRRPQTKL

Take `CCc1nn(-c2ccccc2)c(O)c1/C=N/n1c(C)nc2ccccc2c1=O` [Compound 6, 3-[(3-ethyl-5-hydroxy-1-phenylpyrazol-4-yl)methylidene]-amino-2-methyl-3,4-dihydroquinazolin-4-one]: where the note is “Drug Concentration 10 μM”, the inhibition at 10 µM was found to be 18%.
Consider `CCOC(=O)CCCc1nn(-c2ccccc2)c(O)c1C=Nn1c(C)nc2ccccc2c1=O` [Compound 11, 3-({3-[3-(ethoxycarbonyl)propyl]-5-hydroxy-1-phenylpyrazol-4-yl}methylidene)amino-2-methyl-3,4-dihydroquinazolin-4-one], for which the inhibition at 10 µM (Drug Concentration 10 μM) came to 45%.
Still for that read-out and setting: with `Cc1nc2ccccc2c(=O)n1N=Cc1c(CCCC(=O)O)nn(-c2ccccc2)c1O` [Compound 12, 3-{[3-(3-carboxypropyl)-5-hydroxy-1-phenylpyrazol-4-yl]methylidene}amino-2-methyl-3,4-dihydroquinazolin-4-one] the figure was 46%.
Regarding `Cc1nn(C)c(O)c1/C=N/n1c(C)nc2ccccc2c1=O` [Compound 14, 3-[(1,3-dimethyl-5-hydroxypyrazol-4-yl)methylidene]amino-2-methyl-3,4-dihydroquinazolin-4-one], the inhibition at 10 µM (Drug Concentration 10 μM) is -2%. The inhibition at 30 µM (Drug Concentration 30 μM) was 27%.
In the same order, the values of `Cc1nn(-c2ccccc2Cl)c(O)c1C=Nn1c(C)nc2ccccc2c1=O` [Compound 15, 3-{[1-(2-chlorophenyl)-3-methyl-5-hydroxypyrazol-4-yl]-methylidene}amino-2-methyl-3,4-dihydroquinazolin-4-one] are 20% and 53%.
In the case of `Cc1nn(-c2cccc(Cl)c2)c(O)c1C=Nn1c(C)nc2ccccc2c1=O` [Compound 16, 3-{[1-(3-chlorophenyl)-3-methyl-5-hydroxypyrazol-4-yl]-methylidene}amino-2-methyl-3,4-dihydroquinazolin-4-one], under “Drug Concentration 10 μM”, the inhibition at 10 µM was 50%. Besides, the inhibition at 30 µM (Drug Concentration 30 μM) amounted to 81%.
The like results for `Cc1ccc(-n2nc(C)c(C=Nn3c(C)nc4ccccc4c3=O)c2O)cc1` [Compound 18, 3-{[3-methyl-1-(4-methylphenyl)-5-hydroxypyrazol-4-yl]-methylidene}amino-2-methyl-3,4-dihydroquinazolin-4-one] were, in that order, 23% and 37%.
`COc1ccc(-n2nc(C)c(C=Nn3c(C)nc4ccccc4c3=O)c2O)cc1` [Compound 19, 3-{[3-methyl-1-(4-methoxyphenyl)-5-hydroxypyrazol-4-yl]-methylidene}amino-2-methyl-3,4-dihydroquinazolin-4-one]: under “Drug Concentration 10 μM”, the inhibition at 10 µM was 6%. Also, the inhibition at 30 µM (Drug Concentration 30 μM) was 50%.
For the compound `CCc1nc2ccccc2c(=O)n1/N=C/c1c(C)nn(-c2ccccc2)c1O` [Compound 21], the inhibition at 10 µM (Drug Concentration 10 μM) was 13%. The inhibition at 30 µM (Drug Concentration 30 μM) was 51%.
Consider `Cc1nn(-c2ccccc2)c(O)c1/C=N/n1c(C(C)C)nc2ccccc2c1=O` [Compound 22, 3-[(5-hydroxy-3-methyl-1-phenylpyrazol-4-yl)methylidene]-amino-2-isopropyl-3,4-dihydroquinazolin-4-one], for which the inhibition at 10 µM (Drug Concentration 10 μM) was found to be 14%. Besides, the inhibition at 30 µM (Drug Concentration 30 μM) came out at 44%.
In the same order, the values of `Cc1nn(-c2ccccc2)c(O)c1/C=N/n1c(CO)nc2ccccc2c1=O` [Compound 26, 3-[(5-hydroxy-3-methyl-1-phenylpyrazol-4-yl)methylidene]-amino-2-hydroxymethyl-3,4-dihydroquinazolin-4-one] are 86% and 71%.
The like results for `O=c1c2ccccc2nc(CO)n1/N=C/c1c(C(F)(F)F)nn(-c2ccccc2)c1O` [Compound 28] were, in that order, 19% and 30%.
Take `COCc1nc2ccccc2c(=O)n1N=Cc1c(C)nn(-c2ccccc2)c1O` [Compound 29, 3-[(5-hydroxy-3-methyl-1-phenylpyrazol-4-yl)methylidene]-amino-2-methoxymethyl-3,4-dihydroquinazolin-4-one]: the “Inhibitory Ratio of Prostaglandin D2 (PGD2) Synthase (%)” value (shortened to “Inhibitory Ratio … (%)”) reads like this: (Drug Concentration 10 μM) 20%; (Drug Concentration 30 μM) 40%.
With `COc1cccc(-c2nc3ccccc3c(=O)n2N=Cc2c(C)nn(-c3ccccc3)c2O)c1` [Compound 31, 3-[(5-hydroxy-3-methyl-1-phenylpyrazol-4-yl)methylidene]-amino-2-(3-methoxyphenyl)-3,4-dihydroquinazolin-4-one], the “Inhibitory Ratio … (%)” value (Drug Concentration 10 μM) came to 23% and the “Inhibitory Ratio … (%)” value (Drug Concentration 30 μM) was 26%.
In the same order, the values of `COc1ccccc1-c1nc2ccccc2c(=O)n1N=Cc1c(C)nn(-c2ccccc2)c1O` [Compound 32, 3-[(5-hydroxy-3-methyl-1-phenylpyrazol-4-yl)methylidene]-amino-2-(2-methoxyphenyl)-3,4-dihydroquinazolin-4-one] are 12% and 15%.
For `Cc1nn(-c2ccccc2)c(O)c1/C=N/n1c(C)nc2cccc(C)c2c1=O` [Compound 33, 2,5-dimethyl-3-[(5-hydroxy-3-methyl-1-phenylpyrazol-4-yl)methylidene]amino-3,4-dihydroquinazolin-4-one], where the note is “Drug Concentration 10 μM”, the inhibition at 10 µM worked out at 27%. In addition, under “Drug Concentration 30 μM”, the inhibition at 30 µM was 61%.
In the same order, the values of `Cc1nn(-c2ccccc2)c(O)c1/C=N/n1c(C)nc2c(C)cccc2c1=O` [Compound 34, 2,8-dimethyl-3-[(5-hydroxy-3-methyl-1-phenylpyrazol-4-yl)methylidene]amino-3,4-dihydroquinazolin-4-one] are 71% and 84%.
The like results for `Cc1nn(-c2ccccc2)c(O)c1/C=N/n1c(C)nc2ccc(Cl)cc2c1=O` [Compound 35, 6-chloro-3-[(5-hydroxy-3-methyl-1-phenylpyrazol-4-yl)methylidene]amino-2-methyl-3,4-dihydroquinazolin-4-one] were, in that order, 15% and 68%.
For `Cc1nn(-c2ccccc2)c(O)c1/C=N/n1c(C)nc2cc(Cl)ccc2c1=O` [Compound 36, 7-chloro-3-[(5-hydroxy-3-methyl-1-phenylpyrazol-4-yl)-methylidene]amino-2-methyl-3,4-dihydroquinazolin-4-one], for the setting “Drug Concentration 10 μM”, the inhibition at 10 µM is 39%. The inhibition at 30 µM (Drug Concentration 30 μM) came to 60%.
With `COc1cc2nc(C)n(/N=C/c3c(C)nn(-c4ccccc4)c3O)c(=O)c2cc1OC` [Compound 38, 6,7-dimethoxy-3-[(5-hydroxy-3-methyl-1-phenylpyrazol-4-yl)-methylidene]amino-2-methyl-3,4-dihydroquinazolin-4-one], where the note is “Drug Concentration 10 μM”, the inhibition at 10 µM amounted to 20%. Also, the inhibition at 30 µM (Drug Concentration 30 μM) stood at 51%.
